The results in this text go back to patent publication US10071042B2, “External dermatological agent for anti-ageing” (Hayashibara Co., Ltd., priority 2014, dated 2018).

Assay [1] deals with normal human epidermal keratinocytes. Description: Production level of cornified envelope, absorbance 310 nm (Experiments 1-2 and 7). It is filed as cell-based. To be noted: control = 100%. The method, then:
Normal human epidermal keratinocytes were cultured similarly as in Experiment 1-1, except for adding the test substances listed in Table 2 at prescribed concentrations to the cells. The resulting cultured cells were washed once with phosphate buffered saline (PBS), followed by scrapping off the cells adhered to each culture plate by adding 0.5 mL of PBS to each well of the plates. The cell suspensions thus obtained were added with 10% sodium lauryl sulfate solution in a volume of ¼ of each of the suspension volumes, followed by stirring and freezing the resulting mixtures at −80° C. After thawing, the resulting mixtures were centrifuged at 12,000×g for 15 min, followed by collecting the cell precipitates which were then washed once with phosphate buffered saline containing 2% sodium lauryl sulfate. The resulting mixtures were centrifuged at 12,000×g for 15 min, followed by collecting the cells and suspending the collected cells with phosphate buffered saline containing 2% sodium lauryl sulfate and 20 mM dithiothreitol. The resulting cell suspensions were boiled in a boiling water bath for one hour and measured for absorbance at a wavelength of 310 nm to determine the production level of cornified envelope for each test system added with any of the test substances. A control system was provided similarly as above except for not adding any one of the test substances to the system, and determined for absorbance at a wavelength of 310 nm similarly as in the above to be regarded as 100%. The production level of cornified envelope for each test substance was relatively evaluated based on the following equation. Equation: Production level of cornified envelope (Relative value (%))=[(Absorbance of a sample with any one of test substances)/(Absorbance of Control)]×100
The experiment was repeated three times, and the data was subjected to the Dunnett's multiple comparisons with Control. The symbol “*” means a level of significance of p<0.01.
Except for adding the test substances listed in Tables 8 and 9 at respective concentrations shown in the tables, experiments were respectively conducted in accordance with the methods in Experiments 1-2 and 1-3 disclosed in the specification to examine the effect of the combination use of epigallocatechin gallate, which is used as an antioxidant for cosmetics, and sodium adenosine N1-oxide 5′-phosphate on the action of accelerating the cornified-envelope production and the action of enhancing the transglutaminase activity of sodium adenosine N1-oxide 5′-phosphate. A control system was provided and similarly treated as above except for not adding any test substance and was determined for both the increase rates of cornified-envelope production level and the transglutaminase activity, based on the following equations. Equation: Increase rate of cornified envelope production level (%)={[(Absorbance of a sample with any one of test substances)/(Absorbance of control)]×100}−100 Equation: Increase rate of transglutaminase (%)={[(Absorbance of a sample with any one of test substances)/(Absorbance of control)]×100}−100

In the next assay the test system is matrix metalloprotease-1. As to the kind of experiment: Matrix metalloprotease-1 production of NHDF after IL-1β, ELISA (Experiments 5 and 9). To be noted: for Production level of matrix metalloprotease-1 (%): human IL-1β 1 ng/ml, control = 100%. It is filed as cell-based, human. The method, then: Normal human dermal fibroblasts (NHDF), which had been suspended in a Dulbecco's Modified Eagle Medium supplemented with 10% fetal calf serum to give a concentration of 2.5×10^5 cells/mL, were placed in 96-well microplates by 0.1 mL/well and cultured until reaching a confluent state over the bottom of each well. Thereafter, the medium in each well was replaced with a fresh serum-free culture medium and culture for another 24 hours, added with any one of the test substances in Table 6 at each concentration shown in the table, and cultured for additional 24 hours. Then, the resulting cell cultures were added with human IL-1β to give a final concentration of 1 ng/ml, followed by culturing the cells for another 24 hours. After completion of the culture, matrix metalloprotease-1 in the supernatant in each well was detected with an enzyme-linked immuno sorbent assay (ELISA), commercialized by R & D Systems, Inc., MN, USA, developed coloration with tetramethylbenzidine, and measured for absorption at a wavelength of 450 nm. A control system was provided similarly as above except for not adding any test substance, and determined for the activity of matrix metalloprotease-1 similarly as in the above to be regarded as 100%. The production level of matrix metalloprotease-1 for each test substance was comparatively evaluated based on the following equation. Equation: Production level of matrix metalloprotease-1 (relative value (%))=[(Absorbance of a sample with any one of test substances)/(Absorbance of control)]×100
The experiment was repeated three times, and the data were compared to that of control with the Dunnett's multiple comparisons test. The symbol “*” means a level of significance of p<0.01.
Except for adding the test substances listed in Table 12 at respective concentrations shown in the table, experiments were respectively conducted in accordance with the methods in Experiment 5 disclosed in the specification to examine the effect of the combination use with ascorbic acid 2-glucoside used as a skin whitener in cosmetics on the action of anti-wrinkles by analogues of adenosine N1-oxide 5′-phosphate. A control system was provided and similarly treated as above except for not adding any test substance. The reduction rate of the production level of matrix metalloprotease-1 against that of control based on the following equation. Equation: Reduction rate of the production level of matrix metalloprotease−1(%)=100−[(Absorbance of a sample with any one of test substances)/(Absorbance of control)]×100

Assay [2] relates to normal human epidermal keratinocytes. Description: Differentiation of keratinocytes, microscopic morphology score (Experiment 1-1). The following applies: 3 days culture, mean of triplicate. It is filed as cell-based. From the text:
To 12-well plates, one milliliter of a cell suspension with a cell density of 2.5×10^4 cells/mL prepared by suspending normal human epidermal keratinocytes in EpiLife, a product name of a medium for keratinocytes containing a growth factor, commercialized by Life Technologies, Inc., 9800 Medical Center Drive Rockville, Md. 20850 USA; followed by culturing the cells until prevailing up to about ½ of the bottom surface of each well. Thereafter, the culture medium in each well was replaced with a medium for keratinocytes free of growth factor and cultured for two days, and then replaced with a fresh medium for keratinocytes, which contained any one of the test substances in Table 1 at respective concentrations as indicated in the table, and then cultured for three days. As a control, a culture system was provided similarly as above except for not adding any of the test substances. Under a microscopic condition, cell morphology was observed and evaluated for the keratinocyte-differentiation-inducing ability based on the following criteria:
Score 1: The number of cells in a flattened form against the total cells is 50% or lower.
Score 2: The number of cells in a flattened form against the total cells is 50% or more.
Score 3: Nearly all of the cells are in an irregular shape and there appears some cells with gloss.
It means that the higher the score the more the cell differentiation was accelerated. Each experiment system was performed in a triplicate manner, followed by calculating a mean value for each system.

Assay [3] concerns normal human dermal fibroblasts (NHDF). Description: Number of cells, cytometry kit (Experiment 5). To be noted: control = 100%. It is filed as cell-based. The source says:
The number of cells was counted with a cytometry kit (or a staining method) and the variation of cell number when added with any one of the test substances, based on the value of control being regarded as 100%.

Marks after values point to notes of the source that are not given here.

Turning to “3′-α-Glucosyladenosine [reference compound]”, in assay [1] (800 μM), the “Production level (%) of cornified envelope” value (shortened to “Production level (%)”) is on record as 104.2%. In addition, the “Production level of matrix metalloprotease-1 (%)” value worked out at 86.6% in the assay on matrix metalloprotease-1 (200 μM), 87.1% with matrix metalloprotease-1 (400 μM) and 98.7% in the assay on matrix metalloprotease-1 (800 μM). Besides, the Score in assay [2] (200 μM), in assay [2] (400 μM) and in assay [2] (800 μM) was 0.0 in each case. The “Number of cells (%)” value in assay [3] (200 μM) worked out at 98.9%; in assay [3] (400 μM) it was 101.1%; in assay [3] (800 μM) it was 107.2%.
Take “3′-α-glucosyl adenosine N1-oxide [3′-α-Glucosyladenosine N1-oxide]”: the “Production level (%)” value in assay [1] (200 μM) is 141.4* %. The “Production level of matrix metalloprotease-1 (%)” value was 78.7* % in the assay on matrix metalloprotease-1 (200 μM), 75.5* % in the assay with matrix metalloprotease-1 (400 μM) and 68.6* % in the assay on matrix metalloprotease-1 (800 μM). The Score in assay [2] (40 μM) came to 2.0; in assay [2] (80 μM), 2.0; in assay [2] (160 μM), 3.0. Moreover, the “Number of cells (%)” value in assay [3] (200 μM) was 103.8%; in assay [3] (400 μM), 104.5%; in assay [3] (800 μM), 97.4%.
Take “5′-α-Glucosyladenosine [reference compound]”: the “Production level of matrix metalloprotease-1 (%)” value in the assay on matrix metalloprotease-1 (200 μM) is 89.9%; in the assay on matrix metalloprotease-1 (400 μM), 94.3%; with matrix metalloprotease-1 (800 μM) it was 87.7%. The Score in assay [2] (200 μM), in assay [2] (400 μM) and in assay [2] (800 μM) was 0.0 each time. The “Number of cells (%)” value in assay [3] (200 μM) is 104.0%; in assay [3] (400 μM), 103.4%; in assay [3] (800 μM), 93.4%.
Consider “5′-α-glucosyl adenosine N1-oxide [5′-α-Glucosyladenosine N1-oxide]”, for which the “Production level (%)” value in assay [1] (600 μM) was 148.8* %. The “Production level of matrix metalloprotease-1 (%)” value in the assay on matrix metalloprotease-1 (200 μM) is 85.4* %; in the assay with matrix metalloprotease-1 (400 μM), 83.6* %; in the assay with matrix metalloprotease-1 (800 μM), 77.0* %. The figures for the Score in assay [2] (200 μM), in assay [2] (400 μM) and in assay [2] (800 μM) were 2.0, 2.0 and 3.0, respectively. Also, the “Number of cells (%)” value in assay [3] (200 μM) came to 108.1%; in assay [3] (400 μM) it was 102.1%; in assay [3] (800 μM), 102.6%.
In the case of `Nc1ncnc2c1ncn2[C@@H]1O[C@H](COP(=O)(O)O)[C@@H](O)[C@H]1O` [Adenosine 5′-phosphate, reference compound], in assay [1] (400 μM), the “Production level (%)” value amounted to 136.5%. Besides, the “Production level of matrix metalloprotease-1 (%)” value worked out at 99.5% in the assay with matrix metalloprotease-1 (200 μM), 93.3% in the assay with matrix metalloprotease-1 (400 μM) and 90.3% with matrix metalloprotease-1 (800 μM). The “Number of cells (%)” value is 93.7% in assay [3] (200 μM), 89.9% in assay [3] (400 μM) and 96.0% in assay [3] (800 μM).
Turning to `Nc1c2ncn([C@@H]3O[C@H](CO)[C@@H](O)[C@H]3O)c2nc[n+]1[O-]` [Adenosine N1-oxide, adenosine N1-oxide], the “Production level (%)” value in assay [1] (25 μM) is 178.7* %; in assay [1] (25 μM, listed as adenosine N-1 oxide), “about 180%”. Besides, the “Production level of matrix metalloprotease-1 (%)” value is reported as 86.6% in the assay on matrix metalloprotease-1 (5 μM), 77.6* % in the assay on matrix metalloprotease-1 (10 μM) and 31.9* % in the assay with matrix metalloprotease-1 (20 μM). Besides, the inhibition at 2 µM with matrix metalloprotease-1 (Homo sapiens, NHDF, 2 μM, single use, reduction against control, read-out: Reduction rate of the production level of matrix metalloprotease-1 activity (%)) worked out at 10%. Besides, the inhibition at 5 µM in the assay on matrix metalloprotease-1 (Homo sapiens, NHDF, 5 μM, single use, reduction against control, read-out: Reduction rate of the production level of matrix metalloprotease-1 activity (%)) came to 13.4%. Moreover, in the assay with matrix metalloprotease-1 (Homo sapiens, NHDF, 10 μM, single use, reduction against control, read-out: Reduction rate of the production level of matrix metalloprotease-1 activity (%)), the inhibition at 10 µM was found to be 22.4%. Moreover, the results for the Score in assay [2] (10 μM), in assay [2] (20 μM) and in assay [2] (40 μM) were 2.0, 3.0 and 3.0, respectively. For the same compound, the “Number of cells (%)” value in assay [3] (5 μM) is 98.5%; in assay [3] (10 μM), 94.6%; in assay [3] (20 μM), 94.4%.
For `Nc1ncnc2c1ncn2[C@@H]1O[C@H](CO)[C@@H](O)[C@H]1O` [Adenosine, reference compound], the “Production level (%)” value in assay [1] (400 μM) was determined as 101.7%. Besides, the “Production level of matrix metalloprotease-1 (%)” value came out at 88.7% with matrix metalloprotease-1 (200 μM), 93.4% in the assay with matrix metalloprotease-1 (400 μM) and 85.6% in the assay on matrix metalloprotease-1 (800 μM). Moreover, the Score in assay [2] (100 μM), in assay [2] (200 μM) and in assay [2] (400 μM) was 0.0 each time. Also, the “Number of cells (%)” value in assay [3] (200 μM) is 93.5%; in assay [3] (400 μM), 87.4%; in assay [3] (800 μM), 91.2%.
